Data as given in patent publication US5089623A, “Certain imidate insecticides” (Imperial Chemical Industries Plc, priority 1990, dated 1992).

How the values were obtained:
Format in all cases: in vivo
[1] = test system: Housefly [Musca domestica]; assay: Housefly insecticidal test (HF); conditions: per 25 female houseflies, 48 hours
[2] = test system: Tobacco Budworm [Heliothis virescens (Fabricius)]; assay: Tobacco budworm contact test (TBW-C); conditions: second-instar larvae, 5 days, percent in solution
Procedure: (§1) The compounds in Tables 1 and 2 above were tested for insecticidal activity using the following testing procedures. LC50 values, based on the results of these tests and calculated according to dosage-mortality curves, are expressed in Table 3.
Tobacco Budworm [Heliothis virescens (Fabricius)]
(a) Contact: Test compounds were diluted in a 50-50 acetonewater solution. Cotton (Gossypium sp.) cotyledons were immersed in the test solutions for 2-3 seconds and placed on a wire screen to dry. The dried leaves were placed in petri dishes containing a moistened piece of filter paper and infested with 5 second-instar tobacco budworm larvae. The dishes were placed in a high humidity chamber for 5 days, and percent mortality of the larvae recorded. Test concentrations ranged from 0.1% downward. The LC-50 values are expressed below in Table 3 under the heading "TBW-C" in terms of percent of the test compound in the solution.

[3] = test system: Tobacco Budworm [Heliothis virescens (Fabricius)] eggs; assay: Tobacco budworm egg test (TBW-E); conditions: percent in solution
[4] = test system: Beet Armyworm (Spodoptera exigua); assay: Beet armyworm test (BAW); conditions: second-instar larvae, five days, percent in solution
Procedure: as §1
Beet Armyworm (Spodoptera exigua)
Test compounds were diluted in a 50-50 acetone-water solution. Young leaves of sugar beets (Beta vulgaris) were immersed in the test solutions for 2-3 seconds and placed on a wire screen to dry. The dried leaves were placed in petri dishes containing a moistened filter paper and infested with five second-instar beet armyworm larvae. The dishes were placed in a high humidity chamber. Mortality of the larvae was recorded five days later. Test concentrations ranged from 0.1% downward. The LC-50 values are expressed below in Table 3 under the heading "BAW" in terms of percent of the test compound in solution.

[5] = test system: Cabbage Looper [Trichoplusia ni (Hubner)]; assay: Cabbage looper test (CL); conditions: second-instar larvae, 3-5 days, percent in solution
[6] = test system: Aster Leafhopper [Macrosteles fascifrens (Stal)]; assay: Aster leafhopper test (LH); conditions: adults/nymphs, 48 hours, percent in solution
[7] = test system: Maize weevil [Sitophilus Zeamais (Motschulsky)]; assay: Maize weevil test (MW); conditions: adult weevils, treated corn seeds, 48 hours, percent in solution
Method in brief: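 Adult weevils (10) were placed with four corn seeds that had been dipped 2-3 s in compound dissolved in 50:50 acetone:water, then dried, and held at about 25° C. Mortality was scored at 48 h. LC50 was taken from dosage-mortality curves and expressed as percent compound in solution, from a 0.01% top concentration.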

| SMILES | LC50 HF [1] [µg] | LC50 TBW C [2] [%] | LC50 TBW E [3] [%] | LC50 BAW [4] [%] | LC50 CL [5] [%] | LC50 LH [6] [%] | LC50 MW [7] [%] |
| --- | --- | --- | --- | --- | --- | --- | --- |
| Clc1ccc(N=C(OCc2cccc(Oc3ccccc3)c2)C(Cl)Cl)c(Cl)c1 [Compound 4] | 100 | 0.05 | > 0.1 | 0.04 | 0.007 | > 0.05 | – |
| CC(C)C(=Nc1cccc(Cl)c1)OCc1cccc(Oc2ccccc2)c1 [Compound 7] | 8 | – | 0.009 | 0.006 | 0.006 | 0.0002 | – |
| CC(C)C(=Nc1ccc(Cl)c(Cl)c1)OCc1cccc(Oc2ccccc2)c1 [Compound 14] | 40 | – | – | 0.005 | 0.004 | 0.001 | 0.01 |
| CC(C)C(=Nc1ccc(Cl)cc1)OCc1cccc(Oc2ccccc2)c1 [Compound 2] | 4.5 | 0.0009 | 0.04 | 0.01 | 0.006 | 0.0003 | – |
| CC(C)C(=Nc1ccc(Cl)c(C(F)(F)F)c1)OCc1cccc(Oc2ccccc2)c1 [Compound 71] | 50 | 0.0008 | 0.065 | 0.0004 | 0.0006 | 0.002 | – |
| CC(C)C(=Nc1ccc(Br)cc1)OCc1ccc(F)c(Oc2ccc(F)cc2)c1 [Compound 333] | 15 | 0.00075 | 0.025 | > 0.1 | 0.00024 | – | > 0.01 |
| CC(C)C(=Nc1ccc2c(c1)OC(C)(C)O2)OCc1ccc(F)c(Oc2ccc(F)cc2)c1 [Compound 283] | 23 | 0.0009 | 0.016 | 0.0013 | 0.00009 | – | > 0.01 |
| CC(C)C(=Nc1ccc(F)c(Cl)c1)OCc1cccc(Oc2ccc(Cl)cc2)n1 [Compound 463] | 8 | – | 0.0075 | 0.0024 | 0.00009 | 0.0003 | 0.01 |
| CC(C)C(=Nc1ccc(F)cc1)OCc1cccc(Oc2ccccc2)c1 [Compound 46] | 7 | – | 0.016 | 0.006 | 0.003 | 0.002 | – |
| CC(C)C(=Nc1ccc(F)c(I)c1)OCc1ccc(F)c(Oc2ccc(Cl)cc2)c1 [Compound 326] | 25 | 0.0005 | 0.03 | 0.004 | 0.00015 | – | – |
| CC(C)C(=Nc1ccc(F)c(Cl)c1)OCc1cc(Oc2ccc(F)cc2)c(F)cc1F [Compound 343] | 40 | 0.00025 | > 0.1 | > 0.1 | 0.00027 | – | > 0.01 |
| CC(C)C(=Nc1ccc(Br)c(F)c1)OCc1ccc(F)c(Oc2ccc(F)cc2)c1 [Compound 282] | 16 | 0.0007 | 0.02 | 0.0025 | 0.00007 | – | 0.008 |
| CC(C)C(=Nc1ccc(F)c(Cl)c1F)OCc1cccc(Oc2ccc(Cl)cc2)n1 [Compound 500] | 16 | 0.00075 | 0.02 | 0.002 | 0.00009 | – | – |
| CC(C)C(=Nc1ccc(F)c(Cl)c1)OCc1cccc(Oc2ccc(F)c(F)c2)n1 [Compound 531] | 5 | 0.00037 | > 0.1 | – | > 0.1 | > 0.05 | > 0.01 |
| CC(C)C(=Nc1cccc(C(F)(F)F)c1)OCc1cccc(Oc2ccccc2)c1 [Compound 67] | 15 | – | 0.01 | 0.006 | 0.001 | 0.00027 | – |
| CC(C)C(=Nc1ccc(F)c(Cl)c1F)OCc1cccc(Oc2ccccc2)c1 [Compound 332] | 7 | 0.00075 | 0.015 | 0.0012 | 0.00045 | – | – |

| SMILES | LC50 HF [1] [µg] | LC50 TBW C [2] [%] | LC50 TBW E [3] [%] | LC50 BAW [4] [%] | LC50 CL [5] [%] | LC50 LH [6] [%] | LC50 MW [7] [%] |
| --- | --- | --- | --- | --- | --- | --- | --- |
| CC(C)C(=Nc1ccc(Cl)cc1)OCc1ccc(F)c(Oc2ccccc2)c1 [Compound 23] | 5 | – | 0.017 | 0.001 | 0.0005 | – | – |
| Cc1ccc(N=C(OCc2cccc(Oc3ccccc3)c2)C(Cl)Cl)cc1 [Compound 139] | 4.2 | 0.005 | 0.05 | 0.007 | 0.015 | – | – |
| O=[N+]([O-])c1cccc(N=C(OCc2cccc(Oc3ccccc3)c2)C(Cl)Cl)c1 [Compound 174] | 17 | – | > 0.1 | 0.1 | 0.03 | – | – |
| Cc1c(Cl)cccc1N=C(OCc1cccc(Oc2ccccc2)c1)C(Cl)Cl [Compound 97] | 10 | 0.004 | 0.04 | 0.01 | 0.002 | – | – |
| CC(C)C(=Nc1ccc(F)c(Cl)c1F)OCc1cccc(Oc2ccc(F)cc2)n1 [Compound 521] | 7.5 | 0.0005 | > 0.1 | – | 0.00005 | 0.05 | 0.01 |
| CC(C)C(=Nc1ccc(F)c(F)c1)OCc1cccc(Oc2ccc(F)cc2)c1 [Compound 60] | 8 | 0.0009 | 0.017 | – | 0.001 | 0.002 | 0.0075 |
| Clc1ccccc1N=C(OCc1cccc(Oc2ccccc2)c1)C(Cl)Cl [Compound 34] | > 100 | 0.01 | > 0.1 | 0.015 | 0.015 | – | – |
| O=[N+]([O-])c1ccc(N=C(OCc2cccc(Oc3ccccc3)c2)C(Cl)Cl)cc1 [Compound 173] | 18 | > 0.1 | > 0.1 | > 0.1 | 0.02 | – | – |
| CC(C)C(=Nc1ccc(F)cc1)OCc1ccc(F)c(Oc2ccccc2)c1 [Compound 53] | 2 | 0.0025 | 0.02 | 0.003 | 0.0005 | – | – |
| CCC(C)C(=Nc1ccc(F)c(Cl)c1)OCc1cccc(Oc2ccccc2)c1 (stereo not shown) [Compound 122] | 37 | – | 0.05 | 0.01 | 0.0007 | > 0.05 | – |
| CC(C)C(=Nc1ccc(I)cc1)OCc1ccc(F)c(Oc2ccc(F)cc2)c1 [Compound 335] | 34 | 0.00025 | 0.05 | > 0.1 | 0.00027 | – | > 0.01 |
| CC(C)C(=Nc1ccc(C(F)(F)F)cc1)OCc1cccc(Oc2ccc(Cl)cc2)n1 [Compound 530] | 9.8 | 0.00005 | 0.005 | – | 0.00027 | 0.05 | > 0.01 |
| CC(C)(C)C(=Nc1ccc(Cl)cc1)OCc1cccc(Oc2ccccc2)c1 [Compound 30] | > 100 | 0.01 | > 0.1 | – | 0.003 | > 0.05 | > 0.01 |
| C#CCc1c(F)c(F)c(COC(=Nc2ccc(F)c(Cl)c2)C(C)C)c(F)c1F [Compound 520] | 5.5 | 0.00075 | > 0.1 | – | > 0.1 | 0.0003 | 0.0042 |
| CC(C)C(=Nc1ccc(Cl)c(Cl)c1)OCc1cccc(Oc2ccc(F)cc2)c1 [Compound 37] | 21 | 0.0005 | 0.014 | – | 0.0004 | 0.002 | 0.009 |
| CC(C)C(=Nc1ccc2c(c1)OC(F)(F)O2)OCc1cccc(Oc2ccc(Cl)cc2)c1 [Compound 450] | 72 | 0.0001 | 0.015 | 0.005 | 0.00016 | – | 0.01 |
